Results published in patent publication US8889411B2, “Modulation of stem and progenitor cell differentiation, assays, and uses thereof” (Anthrogenesis Corporation, priority 2002, dated 2014).

Columns and labels:
[1] = test system: Murine Sca+Lin− hematopoietic progenitor cells; assay: Generation of murine dendritic cells from bone marrow Sca+Lin− progenitors, cell surface phenotype; type: cell-based, mouse (C57BL/6)
Excerpt: Mouse bone marrow from inbred C57BL/6 mice was obtained from Clonetics. Hematopoietic Sca+Lin− progenitors were enriched using SpinSep murine progenitor enrichment cocktail (StemCell Technologies) and cultured in Iscove's MDM with BIT 95000 (StemCell Technologies) in the presence of murine growth factors SCF, Flt3L, GM-CSF and M-CSF for 9 days, to promote expansion of Sca+ cells and a DC precursor phenotype and then in the presence of GM-CSF and TNF-α for 3 additional days to drive the cells to an immature DC phenotype. Enriched Sca+Lin− cells were cultured in the presence of DMSO (0.1%), ACTIMID™ at 10 μM or all-trans retinoic acid (ATRA) (ICN Biomedicals) at 10 μM from day 0. Compounds were added to cells at day 0 and day 9.
Analysis of Murine cell surface phenotype: Murine cells were processed for double staining (14 min at RT) at day 9 and day 12; using FITC and PE conjugated mAbs. Antibodies used were from BD Pharmingen: Sea (PE), CD11b (FITC), Gr-1 (FITC), CD86 (PE), CD14 (PE), CD80 (PE), I-A^b (PE), CD40 (PE) and CD32.1/16.1 (FITC) from Miltenyi. Fluorescence analysis was performed on a FACScan flow cytometer (Coulter) after acquisition of 10,000 events.

[2] = test system: Human Cord Blood CD34+ Cells; assay: FACS analysis of proliferation and differentiation of cord blood CD34+ cells cultured with IL3, G-CSF and Kit-ligand; type: cell-based; conditions: for CD11b+ Cell Population / CD34+CD38+ Cell Population / CD34+CD38− Cell Population: 7 days
Experimental: CB CD34+ cells were initiated at 4×10^4 cells/ml in a 24-well plate in 20% FCS IMDM (fetal calf serum/Iscove's Modified Dulbecco's Medium) supplemented with cytokines (1 L3, GCSF and Kit-ligand) (R&D Systems, Inc.). Thalidomide (Thal), ACTIMID™ or REVIMID™ were included in the culture at three different concentrations: 5 μg/ml, 1 μg/ml and 0.3 μg/ml. The same volumes of DMSO were used as controls. A negative control without, any compound was also used (indicated by “none” in FIGS. 3-7). Cells were cultured at 37° C. and 5% CO2 in a humidified incubator for 7 days. Cells were then harvested from each well.
The total cell number from each well was determined by counting in a CELL-DYN® 1700 (Abbott Diagnostics) and the expression of CXCR4, CD45, CD34, CD38, CD 1 lb and Gly-A expression was analyzed by FACS (fluorescence-activated cell sorting) staining (FIGS. 3-7).
CB cells from two different donors (CB2276 and CB2417) were cultured, assayed and analyzed separately (Table 1).

[3] = test system: Purified human cord blood CD34+ cells; assay: Monocyte production: CD34/CD14 staining of cord blood CD34+ cells cultured 14 days with cytokines; type: cell-based
Experimental: Purified human cord blood CD34+ cells (greater than 90% CD34+) were cultured in 20% FCS IMDM medium supplemented with cytokines (IL3, IL6, G-CSF, KL and Epo) at 4×10^4 cells/ml for 14 days at 37° C. in a humidified 5% CO2 incubator. The experimental groups consisted of a group in which (i) no DMSO or chemical compounds were added (“None”), (ii) DMSO only, (iii) Thalidomide dissolved in DMSO, (iv) ACTIMID™ dissolved in DMSO, and (v) REVIMID™ dissolved in DMSO. Aliquots of cells were harvested and stained with CD34-PE conjugated monoclonal antibody and CD14-FITC conjugated monoclonal antibody.

[4] = 10 μM, added at day 0 and day 9

In the case of `Nc1cccc2c1C(=O)N(C1CCC(=O)NC1=O)C2=O` (stereo not shown) [ACTIMID™, 4-(Amino)-2-(2,6-dioxo(3-piperidyl))-isoindoline-1,3-dione], the “cell surface marker expression by day 9” value ([1]; 10 μM from day 0) is reported as “no significant effect”, the “CD11b expression by day 12” value [1, 4] is reported as “upregulation” and the “CD86 and bright I-A^b expression by day 12” value [1, 4] is reported as “downregulation”. The “expression of CD40 and CD80” value ([1]; 10 μM, not shown) was “no effects”, the “up-regulation (increased proliferation) of CD34+ cells” value ([2]; CB2276 and CB2417 cultures) was “up-regulation” and the “expression of CXCR4” value ([2]; FACS analysis of surface proteins) was “inhibitory effect”. For the same compound, the yield of cells ([2]; IL-3, KL and G-CSF, compared with the DMSO control) was “slightly higher number of cells”, the “effect on the proliferation of CD34+ cells” value ([2]; IL-3, KL and G-CSF, compared with the negative control (none)) was “do not have a significant effect” and the “CD11b+ Cell Population” value ([2]; donor CB2276, 0.3 μg/ml) was 6.9%. For the same compound, the “CD34+CD38+ Cell Population” value ([2]; donor CB2276, 0.3 μg/ml) was 0.2, the “CD34+CD38− Cell Population” value ([2]; donor CB2276, 0.3 μg/ml) was 5.9 and the “CD11b+ Cell Population” value ([2]; donor CB2276, 1 μg/ml) was 3.8%. For the same compound, the “CD34+CD38+ Cell Population” value ([2]; donor CB2276, 1 μg/ml) was 0.2, the “CD34+CD38− Cell Population” value ([2]; donor CB2276, 1 μg/ml) was 15.0 and the “CD11b+ Cell Population” value ([2]; donor CB2276, 5 μg/ml) was 1.6%. The “CD34+CD38+ Cell Population” value ([2]; donor CB2276, 5 μg/ml) was 0.2, the “CD34+CD38− Cell Population” value ([2]; donor CB2276, 5 μg/ml) was 17.3 and the “CD11b+ Cell Population” value ([2]; donor CB2417, 0.3 μg/ml) was 8.4%. For the same compound, the “CD34+CD38+ Cell Population” value ([2]; donor CB2417, 0.3 μg/ml) was 0.2, the “CD34+CD38− Cell Population” value ([2]; donor CB2417, 0.3 μg/ml) was 5.9 and the “CD11b+ Cell Population” value ([2]; donor CB2417, 1 μg/ml) was 3.9%. The “CD34+CD38+ Cell Population” value ([2]; donor CB2417, 1 μg/ml) was 0.8, the “CD34+CD38− Cell Population” value ([2]; donor CB2417, 1 μg/ml) was 12.0 and the “CD11b+ Cell Population” value ([2]; donor CB2417, 5 μg/ml) was 2.5%. For the same compound, the “CD34+CD38+ Cell Population” value ([2]; donor CB2417, 5 μg/ml) was 0.1, the “CD34+CD38− Cell Population” value ([2]; donor CB2417, 5 μg/ml) was 14.7 and the “CD38 status of the majority of CD34+ and CD34− cells” value ([2]; treated cell populations) was “CD38−”. The “level of CD11b expression by mean immunofluorescence (MIF)” value ([2]; treated cells) was “decreased”, the “percentage of monocyte lineage cells” value ([3]; 5 μg/ml, compared to control, FIG. 13) was “increase” and the “percentage of CD34+ cells of the total cells” value ([3]; 14 days, IL3, IL6, G-CSF, KL and Epo, compound dissolved in DMSO) was 18.7%. For the same compound, the “production of monocytes (CD14+ cells)” value ([3]; 14 days, relative to DMSO-treated group) was “overcome”.
